The source made the active and inactive calls. The rule behind the calls is not given here. A value given as a limit tells only on which side of the number the result lay.

This is an account of results in ChEMBL document CHEMBL3351798, “Discovery of the CCR1 antagonist, BMS-817399, for the treatment of rheumatoid arthritis” (J Med Chem, 2014).

For one data set, the species on record is Homo sapiens. Description: Inhibition of Na+ channel (unknown origin).
The nature of data set [1]: Bioavailability in rat at 5 mg/kg. The format is ADME, organism-based. The conditions noted are these: in vivo.
The target of data set [2] is T1, C-C chemokine receptor type 4 (Homo sapiens) (UniProt P51679).
T1 sequence (whole entry): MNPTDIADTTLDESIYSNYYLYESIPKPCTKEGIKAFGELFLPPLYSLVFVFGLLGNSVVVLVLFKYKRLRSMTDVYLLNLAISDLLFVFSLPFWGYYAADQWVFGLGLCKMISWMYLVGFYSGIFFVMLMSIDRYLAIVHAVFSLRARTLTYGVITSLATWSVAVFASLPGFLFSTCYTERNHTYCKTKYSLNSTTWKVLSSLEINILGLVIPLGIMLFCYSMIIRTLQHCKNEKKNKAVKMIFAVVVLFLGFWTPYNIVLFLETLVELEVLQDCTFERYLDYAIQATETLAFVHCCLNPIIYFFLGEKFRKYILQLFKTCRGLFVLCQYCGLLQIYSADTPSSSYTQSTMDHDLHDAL
Description: Binding affinity to CCR4 receptor (unknown origin).

Data set [3] concerns the target C-C chemokine receptor type 5 (Homo sapiens) (UniProt P51681). Description: Binding affinity to CCR5 receptor (unknown origin).
Data set [4] concerns the target T2, C-C chemokine receptor type 1 (Homo sapiens, UniProt P32246).
T2 sequence (P32246 whole entry): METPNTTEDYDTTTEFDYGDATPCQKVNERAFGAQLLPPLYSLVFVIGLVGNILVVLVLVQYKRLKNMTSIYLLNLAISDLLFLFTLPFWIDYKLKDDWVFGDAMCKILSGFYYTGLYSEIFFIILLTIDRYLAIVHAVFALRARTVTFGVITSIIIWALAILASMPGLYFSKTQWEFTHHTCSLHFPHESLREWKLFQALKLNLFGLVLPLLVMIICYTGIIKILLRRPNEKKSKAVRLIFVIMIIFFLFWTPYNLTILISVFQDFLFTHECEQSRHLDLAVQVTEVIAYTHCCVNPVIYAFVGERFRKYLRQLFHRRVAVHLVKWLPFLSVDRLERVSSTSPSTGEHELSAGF
The data set can be described thus: Antagonist activity at CCR1 receptor in human whole blood assessed as blocked of MIP-1alpha-mediated CD11b upregulation preincubated for 1 hr.

Data set [5] can be described thus: Bioavailability in dog at 5 mg/kg. The conditions noted are these: in vivo. The data set is classed as ADME, organism-based, Canis lupus familiaris.
Data set [6] can be described thus: Bioavailability in mouse at 5 mg/kg. The data set is classed as ADME, organism-based. To be noted: in vivo.
For data set [7], the target named is C-C chemokine receptor type 2 (Homo sapiens) (UniProt P41597). The data set can be described thus: Binding affinity to CCR2 receptor (unknown origin).
C-C chemokine receptor type 2 (Homo sapiens), sequence (P41597 whole entry, looked up): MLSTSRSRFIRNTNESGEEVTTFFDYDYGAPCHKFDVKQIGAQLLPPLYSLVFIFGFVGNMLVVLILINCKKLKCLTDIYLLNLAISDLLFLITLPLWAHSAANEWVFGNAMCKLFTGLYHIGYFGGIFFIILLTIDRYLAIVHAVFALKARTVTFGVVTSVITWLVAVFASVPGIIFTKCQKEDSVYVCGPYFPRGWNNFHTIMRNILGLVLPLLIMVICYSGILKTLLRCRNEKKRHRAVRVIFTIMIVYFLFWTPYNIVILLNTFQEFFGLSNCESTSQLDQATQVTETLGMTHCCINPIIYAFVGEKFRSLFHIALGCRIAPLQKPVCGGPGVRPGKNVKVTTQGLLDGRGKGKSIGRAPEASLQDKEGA
Data set [8] is described as follows: Metabolic stability in rat liver microsomes assessed as compound remaining at 0.5 uM after 60 mins by UV-LC/MS analysis. The format is ADME. To be noted: read-out: Stability. Background: Microsomes from liver hold many membrane-bound enzymes, among them those of drug oxidation.
Data set [9] can be described thus: Metabolic stability in human liver microsomes assessed as compound remaining at 0.5 uM after 60 mins by UV-LC/MS analysis. To be noted: read-out: Stability. The data set is classed as ADME.
Data set [10] is described as follows: Unbound fraction in human serum. The format is ADME, cell-free.
In data set [11] the target is T3, C-X-C chemokine receptor type 5 (Homo sapiens) (UniProt P32302).
T3 sequence (whole entry): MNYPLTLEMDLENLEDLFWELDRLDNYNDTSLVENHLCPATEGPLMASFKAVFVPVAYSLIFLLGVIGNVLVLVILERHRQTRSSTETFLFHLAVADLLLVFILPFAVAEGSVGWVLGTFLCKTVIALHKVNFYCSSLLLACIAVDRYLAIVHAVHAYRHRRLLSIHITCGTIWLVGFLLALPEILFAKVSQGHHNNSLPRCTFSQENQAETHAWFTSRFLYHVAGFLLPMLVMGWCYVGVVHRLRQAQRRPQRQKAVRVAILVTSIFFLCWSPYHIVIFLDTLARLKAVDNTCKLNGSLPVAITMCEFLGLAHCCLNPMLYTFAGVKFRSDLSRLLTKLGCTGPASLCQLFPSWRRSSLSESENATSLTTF
The data set can be described thus: Binding affinity to CXCR5 receptor (unknown origin).

The nature of data set [12]: Bioavailability in cynomolgus monkey at 5 mg/kg. The data set is classed as ADME, organism-based, Macaca fascicularis. To be noted: in vivo.
The target of data set [13] is T4, Nuclear receptor subfamily 1 group I member 2 (Homo sapiens, UniProt O75469).
T4 sequence (O75469 whole entry): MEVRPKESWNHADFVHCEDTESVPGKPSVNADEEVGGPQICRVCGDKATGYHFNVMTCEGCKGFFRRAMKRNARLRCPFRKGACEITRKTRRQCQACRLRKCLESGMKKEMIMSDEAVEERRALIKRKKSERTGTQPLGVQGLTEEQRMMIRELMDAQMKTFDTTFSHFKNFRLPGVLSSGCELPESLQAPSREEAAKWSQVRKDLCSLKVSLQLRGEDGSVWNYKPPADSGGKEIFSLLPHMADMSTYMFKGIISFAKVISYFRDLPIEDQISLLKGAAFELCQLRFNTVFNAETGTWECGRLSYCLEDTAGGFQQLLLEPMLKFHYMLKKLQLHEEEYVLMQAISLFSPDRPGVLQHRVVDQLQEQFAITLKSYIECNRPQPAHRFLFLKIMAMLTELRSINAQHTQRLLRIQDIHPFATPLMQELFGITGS
The data set can be described thus: Transactivation of human full-length PXR transfected in human HepG2 cells after 24 hrs by luciferase reporter gene assay. The format is cell-based.

Data set [14] in a line: Displacement of [125I]hMIP-1alpha from monkey PBMC CCR1. Set-up: species or system Macaca mulatta. In general terms: Loss of bound radioactivity is the signal in a displacement assay; it reports binding, not function.

C-C chemokine receptor type 5 (Homo sapiens), sequence (P51681 whole entry, looked up): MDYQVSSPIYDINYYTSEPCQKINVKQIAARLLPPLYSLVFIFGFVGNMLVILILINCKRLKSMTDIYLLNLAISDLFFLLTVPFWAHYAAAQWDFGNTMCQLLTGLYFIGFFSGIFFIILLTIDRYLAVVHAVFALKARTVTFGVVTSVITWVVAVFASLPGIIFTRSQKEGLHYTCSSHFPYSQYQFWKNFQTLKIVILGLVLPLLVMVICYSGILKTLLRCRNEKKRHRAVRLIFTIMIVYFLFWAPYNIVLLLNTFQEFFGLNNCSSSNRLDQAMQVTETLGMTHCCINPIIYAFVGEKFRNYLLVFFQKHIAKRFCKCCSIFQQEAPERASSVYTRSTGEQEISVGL

With `CC(C)[C@@H](NC(=O)NCC(C)(C)O)C(=O)N1CC[C@](O)(c2ccc(Cl)cc2)C(C)(C)C1` [BMS-817399], in the data set listed under Homo sapiens, the inhibition result was “inactive”. Also, the bioavailability (commonly the share of a dose that reaches the circulation, judged against a reference dose that is usually intravenous) was found to be 46% in data set [1], 100% in data set [5], 79% in data set [6] and 40% in data set [12]. The outcome in data set [2], in data set [3], in [7] and in data set [11] was inactive. Besides, the half-inhibitory concentration (IC50) (commonly the concentration needed to halve the response being measured) in data set [4] is 0.025 µM; in data set [14] it was greater than 50 µM. For the same molecule, the remaining at 1 h, 0.5 µM is 74% in data set [8] and 100% in [9]. Besides, in [10], the fraction unbound – broadly, free concentration divided by total concentration – was 0.19. In data set [13], the half-maximal effective concentration (EC50) (as a rule, the midpoint of the concentration-response curve) is greater than 25 µM.
